Reference: US20030224023A1, “Cosmetic compositions with hydroxy amine salts of malonic acid” (Unilever Home & Personal Care USA, Division of Conopco, Inc., priority 2002, published 2003)

Excerpt: This formula contains 8% Glycolic acid or 0.1053 equivalents, neutralized with 2.4% ammonia hydroxide which is 0.0395 equivalents, resulting in a final formula pH of 3.8. The DMAE formula contains 2.58% malonic acid or 0.0496 equivalents, neutralized with 3.20% DMAE which is 0.0358 equivalents, resulting in a final formula pH of 5.5. […] The clinical involved (49) panelists over a six week period. Panelists were required to apply each product to one half of their face. After application, the panelists were required to answer a series of questions regarding relative effectiveness of the products.
The effect of pH was evaluated with another set of panelists numbering (58) persons utilizing a formulation at pH 6.5. In this set, 2.05% or 0.0394 equivalents of Malonic acid was neutralized with 3.17% or 0.0356 equivalents of DMAE resulting in a formula with a pH of 6.5. In this formula the malonic acid was 90.35% neutralized with the DMAE. In both DMAE formulas the lower pKa malonic acid group was totally neutralized, depending on the amount of malonic acid present in each formula. The second higher pKa acid group was partially neutralized with the remaining DMAE equivalents to bring the pH up to the desired value.

CN(C)CCO.O=C(O)CC(=O)O [DMAE malonate, dimethylaminoethanol (DMAE) malonate]
improving the general condition of skin (compared with ammonium glycolate): as effective as ammonium glycolate | irritation (compared with the ammonium glycolate composition): considerably less irritating than the ammonium glycolate composition
